From ChEMBL document CHEMBL6115031, “Structure-Based Optimization of Moracin M as Potent and Selective PDE4 Inhibitors with Antipsoriasis Effects” (J Med Chem, 2025)
Activity calls are given as the source filed them. The rule behind the calls is not given here.

Legend:
HaCaT [1] = experiment: Cytotoxicity against human HaCaT cells assessed as reduction in cell viability at 5 to 80 uM incubated for 24 hrs by CCK-8 assay; assay type: toxicity, cell-based; settings: dose 5-80 µM
Mus musculus [2] = experiment: Anti-psoriasis effect in IMQ-induced female BALB/c mouse assessed as reduction in skin thickness at 20 mg/kg administered topically as 0.3 % ointment pretreated with IMQ for 6 hrs followed by compound addition once daily for 7 days; assay type: functional, organism-based; settings: time 7.0 day
Mus musculus [3] = experiment: Anti-psoriasis effect in IMQ-induced female BALB/c mouse model assessed as reduced bleeding in dermal papilla layers at 20 mg/kg administered topically as 0.3 % ointment pretreated with IMQ for 6 hrs followed by compound addition once daily for 7 days by H and E staining based analysis; assay type: functional, organism-based; settings: time 7.0 day
[4] = biological target: cAMP and cAMP-inhibited cGMP 3',5'-cyclic phosphodiesterase 10A (Homo sapiens, UniProt Q9Y233); experiment: Inhibition of PDE10A2 (449 to 770 residues) (unknown origin) extracted from Escherichia coli BL21 cells using 3H-cAMP/3H-cGMP as substrate preincubated with compound for 15 mins followed by substrate addition by liquid scintillation counter
Sequence of cAMP and cAMP-inhibited cGMP 3',5'-cyclic phosphodiesterase 10A (Q9Y233 whole entry, the tested form may be a part): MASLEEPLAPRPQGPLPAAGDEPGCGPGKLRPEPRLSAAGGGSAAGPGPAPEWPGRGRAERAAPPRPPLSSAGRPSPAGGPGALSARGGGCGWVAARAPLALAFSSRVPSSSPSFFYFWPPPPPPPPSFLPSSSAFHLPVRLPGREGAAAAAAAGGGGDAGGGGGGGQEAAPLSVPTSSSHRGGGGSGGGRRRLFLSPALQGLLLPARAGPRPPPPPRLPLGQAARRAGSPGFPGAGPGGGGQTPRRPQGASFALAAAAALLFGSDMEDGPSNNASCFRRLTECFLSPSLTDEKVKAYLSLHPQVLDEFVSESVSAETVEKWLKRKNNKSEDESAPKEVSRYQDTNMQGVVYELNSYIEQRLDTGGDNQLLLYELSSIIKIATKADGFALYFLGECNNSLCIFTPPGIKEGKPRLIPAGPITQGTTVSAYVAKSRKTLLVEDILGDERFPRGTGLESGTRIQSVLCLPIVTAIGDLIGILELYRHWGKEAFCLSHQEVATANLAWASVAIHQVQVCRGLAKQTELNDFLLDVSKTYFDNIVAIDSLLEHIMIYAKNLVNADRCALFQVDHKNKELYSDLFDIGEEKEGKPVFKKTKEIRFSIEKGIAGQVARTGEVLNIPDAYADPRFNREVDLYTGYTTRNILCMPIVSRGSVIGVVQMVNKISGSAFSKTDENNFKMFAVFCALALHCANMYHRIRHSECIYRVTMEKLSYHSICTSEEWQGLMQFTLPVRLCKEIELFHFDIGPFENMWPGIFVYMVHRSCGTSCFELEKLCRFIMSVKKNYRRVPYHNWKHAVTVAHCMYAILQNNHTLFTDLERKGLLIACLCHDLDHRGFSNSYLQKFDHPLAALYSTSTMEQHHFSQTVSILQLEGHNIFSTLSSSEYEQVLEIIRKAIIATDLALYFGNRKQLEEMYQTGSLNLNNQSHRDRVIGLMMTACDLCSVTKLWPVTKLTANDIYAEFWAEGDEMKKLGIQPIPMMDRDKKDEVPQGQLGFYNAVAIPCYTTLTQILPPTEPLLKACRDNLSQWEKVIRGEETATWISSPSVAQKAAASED

[5] = biological target: High affinity 3',5'-cyclic-AMP phosphodiesterase 7A (Homo sapiens, UniProt Q13946); experiment: Inhibition of PDE7A1 (130 to 482 residues) (unknown origin) extracted from Escherichia coli BL21 cells using 3H-cAMP/3H-cGMP as substrate preincubated with compound for 15 mins followed by substrate addition by liquid scintillation counter
Sequence of High affinity 3',5'-cyclic-AMP phosphodiesterase 7A (Q13946 whole entry, the tested form may be a part): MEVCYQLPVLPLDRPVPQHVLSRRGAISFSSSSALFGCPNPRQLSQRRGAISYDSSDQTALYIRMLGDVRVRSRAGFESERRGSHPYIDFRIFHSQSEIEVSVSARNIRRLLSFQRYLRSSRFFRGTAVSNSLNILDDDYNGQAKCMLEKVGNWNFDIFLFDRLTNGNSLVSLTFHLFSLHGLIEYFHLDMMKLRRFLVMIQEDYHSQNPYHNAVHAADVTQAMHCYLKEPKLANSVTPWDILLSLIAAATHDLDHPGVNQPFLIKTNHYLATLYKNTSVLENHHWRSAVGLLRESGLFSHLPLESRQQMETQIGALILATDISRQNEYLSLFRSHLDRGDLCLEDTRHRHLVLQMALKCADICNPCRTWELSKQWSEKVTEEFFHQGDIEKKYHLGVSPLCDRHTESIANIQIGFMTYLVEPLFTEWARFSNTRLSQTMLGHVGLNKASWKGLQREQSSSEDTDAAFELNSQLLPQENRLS

HaCaT [6] = experiment: Anti-psoriasis effect in M5-stimulated human HaCaT cells assessed as upregulation of K1 protein expression at 20 uM pretreated with M5 followed by compound addition and measured after 24 hrs by Western blotting analysis; assay type: functional, cell-based
[7] = biological target: 3',5'-cyclic-AMP phosphodiesterase 4D (Homo sapiens, UniProt Q08499); experiment: Inhibition of human PDE4D2 (86 to 413 residues) extracted from Escherichia coli BL21 cells using 3H-cAMP/3H-cGMP as substrate preincubated with compound for 15 mins followed by substrate addition by liquid scintillation counter
Sequence of 3',5'-cyclic-AMP phosphodiesterase 4D (Q08499 whole entry, the tested form may be a part): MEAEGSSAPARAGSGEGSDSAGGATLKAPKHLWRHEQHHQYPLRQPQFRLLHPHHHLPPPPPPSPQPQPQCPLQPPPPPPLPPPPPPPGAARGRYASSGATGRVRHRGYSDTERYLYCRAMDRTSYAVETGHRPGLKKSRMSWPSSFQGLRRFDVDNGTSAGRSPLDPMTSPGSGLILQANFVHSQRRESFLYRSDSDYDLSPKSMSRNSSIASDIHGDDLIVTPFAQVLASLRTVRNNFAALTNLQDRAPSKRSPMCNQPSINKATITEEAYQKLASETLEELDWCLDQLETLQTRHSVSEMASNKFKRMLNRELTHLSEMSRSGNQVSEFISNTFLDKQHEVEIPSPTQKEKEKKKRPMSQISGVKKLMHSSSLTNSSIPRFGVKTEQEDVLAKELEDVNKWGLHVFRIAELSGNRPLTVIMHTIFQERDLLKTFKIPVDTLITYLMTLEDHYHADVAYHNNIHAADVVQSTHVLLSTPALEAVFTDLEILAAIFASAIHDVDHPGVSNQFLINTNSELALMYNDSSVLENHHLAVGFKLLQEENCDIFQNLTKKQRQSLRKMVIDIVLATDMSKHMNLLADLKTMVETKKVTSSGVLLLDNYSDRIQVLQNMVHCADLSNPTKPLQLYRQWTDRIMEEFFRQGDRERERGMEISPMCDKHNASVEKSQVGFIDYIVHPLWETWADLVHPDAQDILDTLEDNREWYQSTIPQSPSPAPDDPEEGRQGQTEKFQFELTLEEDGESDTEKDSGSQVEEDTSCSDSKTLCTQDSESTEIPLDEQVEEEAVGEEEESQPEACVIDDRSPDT

Mus musculus [8] = experiment: Anti-inflammatory activity in IMQ-induced psoriasis in female BALB/c mouse assessed as reduction in IL-17 mRNA level at 20 mg/kg administered topically as 0.3 % ointment pretreated with IMQ for 6 hrs followed by compound addition once daily for 7 days by q-PCR analysis; assay type: functional, organism-based; settings: time 7.0 day
[9] = Drug absorption in rat skin assessed as skin permeability by measuring cumulative transdermal amount per unit area administered topically as 0.3% ointment at 100 mg by HPLC analysis; assay type: ADME, tissue-based, Skin of body; settings: in vivo, topical_or_ocular
Mus musculus [10] = experiment: Anti-psoriasis effect in IMQ-induced female BALB/c mouse assessed as reduction in psoriasis severity index score at 20 mg/kg administered topically as 0.3 % ointment pretreated with IMQ for 6 hrs followed by compound addition once daily for 7 days; assay type: functional, organism-based; settings: time 7.0 day
Mus musculus [11] = experiment: Anti-psoriasis effect in IMQ-induced female BALB/c mouse model assessed as reduction in spinous layer thickness at 20 mg/kg administered topically as 0.3 % ointment pretreated with IMQ for 6 hrs followed by compound addition once daily for 7 days by H and E staining based analysis; assay type: functional, organism-based; settings: time 7.0 day
Mus musculus [12] = experiment: Anti-inflammatory activity in IMQ-induced psoriasis in female BALB/c mouse assessed as reduction in TNF-alpha mRNA level at 20 mg/kg administered topically as 0.3 % ointment pretreated with IMQ for 6 hrs followed by compound addition once daily for 7 days by q-PCR analysis; assay type: functional, organism-based; settings: time 7.0 day
HaCaT [13] = experiment: Anti-inflammatory activity in M5- stimulated human HaCaT cells assessed as reduction in CXCL-2 mRNA level incubated for 24 hrs by q-PCR analysis; assay type: functional, cell-based; settings: dose 5-20 µM
HaCaT [14] = experiment: Anti-psoriasis effect in M5-stimulated human HaCaT cells assessed as upregulation of K10 protein expression at 20 uM pretreated with M5 followed by compound addition and measured after 24 hrs by Western blotting analysis; assay type: functional, cell-based
Mus musculus [15] = experiment: Anti-psoriasis effect in female BALB/c mouse model assessed as increase in K10 protein expression at 20 mg/kg administered topically as 0.3 % ointment pretreated with IMQ for 6 hrs followed by compound addition once daily for 7 days by Western blotting analysis; assay type: functional, organism-based; settings: time 7.0 day
Mus musculus [16] = experiment: Anti-psoriasis effect in IMQ-induced female BALB/c mouse model assessed as reduction in fibroblast proliferation at 20 mg/kg administered topically as 0.3 % ointment pretreated with IMQ for 6 hrs followed by compound addition once daily for 7 days by H and E staining based analysis; assay type: functional, organism-based; settings: time 7.0 day
Mus musculus [17] = experiment: Anti-inflammatory activity in IMQ-induced psoriasis in female BALB/c mouse assessed as reduction in CXCL-2 mRNA level at 20 mg/kg administered topically as 0.3 % ointment pretreated with IMQ for 6 hrs followed by compound addition once daily for 7 days by q-PCR analysis; assay type: functional, organism-based; settings: time 7.0 day
HaCaT [18] = experiment: Anti-psoriasis activity in M5-stimulated human HaCaT cells assessed as restoration of cAMP level at 20 uM incubated for 2 hrs by competitive ELISA; assay type: functional, cell-based
[19] = biological target: cGMP-specific 3',5'-cyclic phosphodiesterase (Homo sapiens, UniProt O76074); experiment: Inhibition of PDE5A1 (535 to 860 residues) (unknown origin) extracted from Escherichia coli BL21 cells using 3H-cAMP/3H-cGMP as substrate preincubated with compound for 15 mins followed by substrate addition by liquid scintillation counter
HaCaT [20] = experiment: Anti-inflammatory activity in M5- stimulated human HaCaT cells assessed as reduction in TNF-alpha mRNA level incubated for 24 hrs by q-PCR analysis; assay type: functional, cell-based; settings: dose 5-20 µM
Mus musculus [21] = experiment: Anti-psoriasis effect in IMQ-induced female BALB/c mouse assessed as change in size of spleen at 20 mg/kg administered topically as 0.3 % ointment pretreated with IMQ for 6 hrs followed by compound addition once daily for 7 days by H and E staining based analysis; assay type: functional, organism-based; settings: time 7.0 day
Mus musculus [22] = experiment: Anti-psoriasis effect in IMQ-induced female BALB/c mouse assessed as decrease in erythema scores at 20 mg/kg administered topically as 0.3 % ointment pretreated with IMQ for 6 hrs followed by compound addition once daily for 7 days; assay type: functional, organism-based; settings: time 7.0 day
RAW264.7 = experiment: Anti-inflammatory activity in LPS-stimulated mouse RAW264.7 cells assessed as reduction in TNF-alpha mRNA level pretreated with compound for 2 hrs followed by LPS stimulation and measured after 6 hrs by q-PCR analysis; assay type: functional, cell-based; settings: dose 5-20 µM, time 8.0 hrs
Mus musculus [23] = experiment: Anti-psoriasis effect in IMQ-induced female BALB/c mouse model assessed as reduction in abnormal rete ridges at 20 mg/kg administered topically as 0.3 % ointment pretreated with IMQ for 6 hrs followed by compound addition once daily for 7 days by H and E staining based analysis; assay type: functional, organism-based; settings: time 7.0 day
HaCaT [24] = experiment: Anti-psoriasis effect in M5-stimulated human HaCaT cells assessed as decrease in K17 protein expression at 20 uM pretreated with M5 followed by compound addition and measured after 24 hrs by Western blotting analysis; assay type: functional, cell-based
Mus musculus [25] = experiment: Anti-psoriasis effect in IMQ-induced female BALB/c mouse assessed as decrease in skin scales at 20 mg/kg administered topically as 0.3 % ointment pretreated with IMQ for 6 hrs followed by compound addition once daily for 7 days; assay type: functional, organism-based; settings: time 7.0 day
Mus musculus [26] = experiment: Anti-inflammatory activity in IMQ-induced psoriasis in female BALB/c mouse assessed as reduction in IL-6 mRNA level at 20 mg/kg administered topically as 0.3 % ointment pretreated with IMQ for 6 hrs followed by compound addition once daily for 7 days by q-PCR analysis; assay type: functional, organism-based; settings: time 7.0 day

## COC(=O)[C@H]1C[C@@H](Oc2c(O)ccc3cc(-c4ccc(OC(F)F)c(OCC5CC5)c4)oc23)CN1
HaCaT [1]
  Activity: Non-toxic
Mus musculus [2]
  Activity: Active
Mus musculus [3]
  Activity: Active
[4]
  IC50: 1950 nM
[5]
  IC50: 5.91 µM
HaCaT [6]
  Activity: Active
[7]
  IC50: 8.6 nM
Mus musculus [8]
  Activity: Active
[9]
  Drug absorption: 15.78 microg/cm2
Mus musculus [10]
  Activity: Active
Mus musculus [11]
  Activity: Active
Mus musculus [12]
  Activity: Active
HaCaT [13]
  Activity: Dose-dependent-effect
HaCaT [14]
  Activity: Active
Mus musculus [15]
  Activity: Active
Mus musculus [16]
  Activity: Active
Mus musculus [17]
  Activity: Active
HaCaT [18]
  Activity: Active
[19]
  IC50: 1730 nM
HaCaT [20]
  Activity: Dose-dependent-effect
Mus musculus [21]
  Activity: Active
Mus musculus [22]
  Activity: Active
RAW264.7
  Activity: Dose-dependent-effect
Mus musculus [23]
  Activity: Active
HaCaT [24]
  Activity: Active
Mus musculus [25]
  Activity: Active
Mus musculus [26]
  Activity: Active
